From patent US20240002438A1, “MELANOCORTIN LIGANDS AND METHODS OF USE THEREOF” (REGENTS OF THE UNIVERSITY OF MINNESOTA, priority 2021, published 2024)
Read-outs that look alike come from different tables or passages of the source. Where a SMILES comes first, the peptide text is derived from it. Primed or numbered codes have the meaning given here. [ ]: non-standard residue; d: D form. dBip = N[C@H](Cc1ccc(-c2ccccc2)cc1)C(=O)O; Oic = O=C(O)[C@@H]1C[C@@H]2CCCC[C@@H]2N1; dPhe(4-I) = N[C@H](Cc1ccc(I)cc1)C(=O)O; 2Nal = N[C@@H](Cc1ccc2ccccc2c1)C(=O)O; d2Nal = N[C@H](Cc1ccc2ccccc2c1)C(=O)O; Nle = CCCC[C@H](N)C(=O)O; Pip′ = not defined here

Assays:
[1] = Solubility in solvents compatible with RP-HPLC
mMC1R [2] = target: T1, mMC1R (Mus musculus, UniProt Q01727); assay: cell-based
Experimental: (§1) Following stimulation, streptavidin donor beads (0.5 μg) and biotinylated-cAMP (0.62 μmol) were added to the wells in a green light environment with 10 μL of lysis buffer (5 mM HEPES, 0.3% Tween-20, 0.1% BSA, pH=7.4) and the plates were incubated in the dark at room temperature for an additional 2 h. Plates were read on a Enspire (PerkinElmer) Alpha-plate reader using a pre-normalized assay protocol (set by the manufacturer).

mMC4R [3] = target: T2, mMC4R (Mus musculus, UniProt P56450); assay: cAMP AlphaScreen antagonist assay at mMC4R, NDP-MSH as agonist, HEK293 cells; conditions: for mMC4R antagonist pA2: NDP-MSH as agonist, HEK293 cells stably expressing mMC4R
Experimental: as §1

mMC4R [4] = target: T2, mMC4R; set-up: expressed in transfected cells; host or cells: HEK293; conditions: Doering 2017; cited from earlier work
mMC3R [5] = target: T3, mMC3R (Mus musculus, UniProt P33033); set-up: expressed in transfected cells; host or cells: HEK293; conditions: Doering 2017; cited from earlier work
mMC3R [6] = target: T3, mMC3R; set-up: expressed in transfected cells; host or cells: HEK293; conditions: Doering 2017; cited from earlier work; remark: listed apart in the source
mMC4R [7] = target: T2, mMC4R; set-up: expressed in transfected cells; host or cells: HEK293; conditions: cited from earlier work
mMC3R [8] = target: T3, mMC3R; assay: cAMP AlphaScreen antagonist assay at mMC3R, NDP-MSH as agonist, HEK293 cells; conditions: for mMC3R antagonist pA2: NDP-MSH as agonist, HEK293 cells stably expressing mMC3R; for mMC3R antagonist activity: at the concentrations assayed
mMC1R [9] = target: T1, mMC1R; conditions: for mMC1R agonist activity: up to 100 μM
Experimental: as §1

mMC5R [10] = target: T4, mMC5R (Mus musculus, UniProt P41149); set-up: expressed in transfected cells; host or cells: HEK293; conditions: Doering 2017; cited from earlier work
mMC3R [11] = target: T3, mMC3R; assay: cAMP AlphaScreen agonist assay at mMC3R, HEK293 cells; conditions: up to 100 μM
Experimental: as §1

mMC4R [12] = target: T2, mMC4R; assay: cAMP AlphaScreen agonist assay at mMC4R, HEK293 cells; conditions: for mMC4R agonist activity: up to 100 μM
Experimental: as §1

mMC5R [13] = target: T4, mMC5R; assay: cAMP AlphaScreen agonist assay at mMC5R, HEK293 cells; conditions: for mMC5R agonist activity: up to 100 μM
Experimental: as §1

MC4R [14] = target: T5, MC4R (Homo sapiens, UniProt P32245); conditions: Nozawa 2007; cited from earlier work
Target sequence in this assay (P32245 whole entry): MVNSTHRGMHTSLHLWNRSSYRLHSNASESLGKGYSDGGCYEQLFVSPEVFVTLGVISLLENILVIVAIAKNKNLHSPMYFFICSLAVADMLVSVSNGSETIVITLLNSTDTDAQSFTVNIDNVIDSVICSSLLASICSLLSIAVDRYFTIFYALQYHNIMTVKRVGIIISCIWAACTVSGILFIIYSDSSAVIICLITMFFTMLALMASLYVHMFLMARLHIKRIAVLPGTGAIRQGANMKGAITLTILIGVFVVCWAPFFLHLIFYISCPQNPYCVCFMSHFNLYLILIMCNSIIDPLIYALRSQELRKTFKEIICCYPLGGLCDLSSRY

human (h)MC4R = human (h)MC4R (Homo sapiens, UniProt P32245); conditions: Chaki 2003; read-out: binding affinity at hMC4R; cited from earlier work
MC1R [15] = target: T6, MC1R (Homo sapiens, UniProt Q01726); conditions: unable to displace at up to this concentration; Chaki 2003; read-out: displacement of radiolabeled NDP-MSH at hMC1R; cited from earlier work
Target sequence in this assay (Q01726 whole entry): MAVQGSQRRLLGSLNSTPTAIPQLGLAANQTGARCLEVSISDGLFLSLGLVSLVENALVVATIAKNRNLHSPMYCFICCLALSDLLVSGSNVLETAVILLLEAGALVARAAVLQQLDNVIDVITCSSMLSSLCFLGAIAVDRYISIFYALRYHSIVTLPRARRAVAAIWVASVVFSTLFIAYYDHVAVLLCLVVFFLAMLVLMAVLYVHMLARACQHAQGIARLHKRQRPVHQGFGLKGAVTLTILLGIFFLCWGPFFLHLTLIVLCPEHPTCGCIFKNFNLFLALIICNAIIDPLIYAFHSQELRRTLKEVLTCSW

MC3R [16] = target: T7, MC3R (Homo sapiens, UniProt P41968); conditions: Chaki 2003; read-out: binding affinity at hMC3R; cited from earlier work
Target sequence in this assay (P41968 whole entry): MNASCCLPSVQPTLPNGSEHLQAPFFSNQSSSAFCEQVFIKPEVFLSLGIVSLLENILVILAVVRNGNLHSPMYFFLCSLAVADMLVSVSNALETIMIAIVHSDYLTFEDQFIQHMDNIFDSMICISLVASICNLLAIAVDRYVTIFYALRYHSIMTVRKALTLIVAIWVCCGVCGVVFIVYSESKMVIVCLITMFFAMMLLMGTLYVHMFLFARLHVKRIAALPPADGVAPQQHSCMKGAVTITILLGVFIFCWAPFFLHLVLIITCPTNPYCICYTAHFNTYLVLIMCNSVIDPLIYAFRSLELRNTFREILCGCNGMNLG

MC4R [17] = target: T5, MC4R; conditions: unable to displace at up to this concentration; read-out: displacement of NDP-MSH at the MC4R; cited from earlier work
Target sequence in this assay (P32245 whole entry, species assumed): as the sequence (P32245 whole entry) above

MC5R [18] = target: T8, MC5R (Homo sapiens, UniProt P33032); conditions: Bednarek, cited from earlier work
MC4R [19] = target: T5, MC4R; conditions: at 2 μM; cited from earlier work
Target sequence in this assay (P32245 whole entry, species assumed): as the sequence (P32245 whole entry) above

MC3R [20] = target: T7, MC3R; conditions: unable to displace at up to this concentration; read-out: displacement of NDP-MSH at the MC3R; cited from earlier work
Target sequence in this assay (P41968 whole entry, species assumed): as the sequence (P41968 whole entry) above

MC1R [21] = target: T6, MC1R; conditions: at 2 μM; cited from earlier work
Target sequence in this assay (Q01726 whole entry, species assumed): as the sequence (Q01726 whole entry) above

MC3R [22] = target: T7, MC3R; conditions: at 2 μM; cited from earlier work
Target sequence in this assay (P41968 whole entry, species assumed): as the sequence (P41968 whole entry) above

MC1R [23] = target: T6, MC1R; conditions: unable to displace at up to this concentration; read-out: displacement of NDP-MSH at the MC1R; cited from earlier work
Target sequence in this assay (Q01726 whole entry, species assumed): as the sequence (Q01726 whole entry) above

MC5R [24] = target: T8, MC5R; conditions: Bednarek, cited from earlier work; remark: listed apart in the source
MC4R [25] = target: T5, MC4R; conditions: Grieco 2002; cited from earlier work
Target sequence in this assay (P32245 whole entry): as the sequence (P32245 whole entry) above

MC3R [26] = target: T7, MC3R; conditions: Grieco 2002; cited from earlier work
Target sequence in this assay (P41968 whole entry): as the sequence (P41968 whole entry) above

T1 sequence (Q01727 whole entry): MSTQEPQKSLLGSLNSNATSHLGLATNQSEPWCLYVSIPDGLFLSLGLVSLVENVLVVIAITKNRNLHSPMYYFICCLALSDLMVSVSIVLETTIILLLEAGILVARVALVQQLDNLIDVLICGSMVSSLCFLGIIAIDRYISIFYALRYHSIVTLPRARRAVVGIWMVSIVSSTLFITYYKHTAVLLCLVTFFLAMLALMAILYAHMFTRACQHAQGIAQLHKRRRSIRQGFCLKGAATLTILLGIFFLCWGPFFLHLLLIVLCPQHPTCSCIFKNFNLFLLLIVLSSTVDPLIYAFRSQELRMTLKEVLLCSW
T2 sequence (P56450 whole entry): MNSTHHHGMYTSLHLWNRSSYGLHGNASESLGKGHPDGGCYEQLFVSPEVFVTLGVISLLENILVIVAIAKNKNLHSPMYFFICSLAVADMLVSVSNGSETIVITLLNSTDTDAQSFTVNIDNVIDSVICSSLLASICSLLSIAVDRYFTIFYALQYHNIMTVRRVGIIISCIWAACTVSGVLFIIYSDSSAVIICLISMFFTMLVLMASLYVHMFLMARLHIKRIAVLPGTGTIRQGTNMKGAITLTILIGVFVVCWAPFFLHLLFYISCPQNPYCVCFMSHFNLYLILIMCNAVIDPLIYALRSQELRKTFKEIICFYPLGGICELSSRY
T3 sequence (P33033 whole entry): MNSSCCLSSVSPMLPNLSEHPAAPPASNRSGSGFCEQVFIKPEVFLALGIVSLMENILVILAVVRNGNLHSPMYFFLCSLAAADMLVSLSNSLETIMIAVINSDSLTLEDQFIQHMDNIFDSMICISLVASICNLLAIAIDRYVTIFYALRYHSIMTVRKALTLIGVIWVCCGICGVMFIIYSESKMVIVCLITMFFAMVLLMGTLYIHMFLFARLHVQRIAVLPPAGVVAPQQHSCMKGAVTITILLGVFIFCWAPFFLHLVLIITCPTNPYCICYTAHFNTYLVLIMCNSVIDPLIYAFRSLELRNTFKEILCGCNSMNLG
T8 sequence (P33032 whole entry, species assumed): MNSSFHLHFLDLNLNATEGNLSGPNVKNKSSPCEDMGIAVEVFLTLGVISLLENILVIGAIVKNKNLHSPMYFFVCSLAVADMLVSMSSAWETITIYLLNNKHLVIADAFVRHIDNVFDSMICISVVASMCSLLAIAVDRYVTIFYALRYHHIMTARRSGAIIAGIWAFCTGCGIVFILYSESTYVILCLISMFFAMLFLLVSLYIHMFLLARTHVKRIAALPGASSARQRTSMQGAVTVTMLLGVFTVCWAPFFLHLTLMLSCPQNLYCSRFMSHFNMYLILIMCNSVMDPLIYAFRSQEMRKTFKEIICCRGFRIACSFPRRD
T4 sequence (P41149 whole entry): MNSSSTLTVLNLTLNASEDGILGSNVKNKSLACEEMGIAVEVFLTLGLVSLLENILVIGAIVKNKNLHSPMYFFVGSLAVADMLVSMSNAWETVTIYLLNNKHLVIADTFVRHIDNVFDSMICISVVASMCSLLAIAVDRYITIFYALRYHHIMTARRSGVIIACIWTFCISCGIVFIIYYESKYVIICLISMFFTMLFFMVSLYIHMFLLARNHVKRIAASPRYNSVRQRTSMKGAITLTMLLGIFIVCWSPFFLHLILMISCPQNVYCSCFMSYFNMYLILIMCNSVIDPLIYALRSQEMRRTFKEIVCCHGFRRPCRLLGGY
Chain of human (h)MC4R (P32245 whole entry): as the sequence (P32245 whole entry) above

## CC(=O)N[C@H](Cc1ccc2ccccc2c1)C(=O)N[C@H](Cc1ccc2ccccc2c1)C(=O)N[C@H](Cc1ccc2ccccc2c1)C(=O)N[C@H](Cc1ccc2ccccc2c1)C(N)=O [Ac-DNal(2′)-DNal(2′)-DNal(2′)-DNal(2′)-NH2] (Ac-[d2Nal][d2Nal][d2Nal][d2Nal]-NH2)
[1]
  solubility in solvents compatible with RP-HPLC: insoluble

## CC(=O)N[C@H](Cc1ccc2ccccc2c1)C(=O)N[C@@H](CCCNC(=N)N)C(=O)N[C@H](Cc1ccc2ccccc2c1)C(=O)N[C@H](CCCCN)C(N)=O [compound 13, Ac-DNal(2′)-Arg-DNal(2′)-DLys-NH2] (Ac-[d2Nal]R[d2Nal][dK]-NH2)
mMC1R [2]
  EC50: 400 to 7900 nM

## CC(=O)N[C@H](Cc1ccc2ccccc2c1)C(=O)N[C@@H](CCCNC(=N)N)C(=O)N[C@H](Cc1ccc2ccccc2c1)C(=O)N[C@H](Cc1ccc2ccccc2c1)C(N)=O [compound 14] (Ac-[d2Nal]R[d2Nal][d2Nal]-NH2)
mMC1R [2]
  EC50: 400 to 7900 nM

## CC(=O)N[C@H](Cc1ccc2ccccc2c1)C(=O)N[C@@H](CCCNC(=N)N)C(=O)N[C@H](Cc1ccc2ccccc2c1)C(=O)N[C@@H](CCCNC(=N)N)C(N)=O [compound 15, Ac-DNal(2′)-Arg-DNal(2′)-Arg-NH2] (Ac-[d2Nal]R[d2Nal]R-NH2)
mMC1R [2]
  EC50: 400 to 7900 nM

## CC(=O)N[C@H](Cc1ccc2ccccc2c1)C(=O)N[C@@H](CCCNC(=N)N)C(=O)N[C@H](Cc1ccc(I)cc1)C(=O)N[C@H](Cc1ccc2ccccc2c1)C(N)=O [compound 20] (Ac-[d2Nal]R[dPhe(4-I)][d2Nal]-NH2)
mMC4R [3]
  mMC4R antagonist pA2: 6.5
mMC4R [4]
  mMC4R antagonist pA2, previously reported: 5.9
mMC3R [5]
  mMC3R antagonist pA2, previously reported: 5.6
mMC3R [6]
  mMC3R partial agonist efficacy, % of the maximal NDP-MSH signal, previously reported: 40%
mMC4R [7]; Doering 2017
  mMC4R partial agonist efficacy, % of the maximal NDP-MSH signal, previously reported: 37%
mMC3R [8]
  mMC3R antagonist pA2: 6.1
mMC1R [9]; read-out: mMC1R agonist EC50
  EC50: 5000 nM
mMC1R [9]
  mMC1R agonist activity: full agonist activity
mMC5R [10]
  mMC5R partial agonist efficacy, % of the maximal NDP-MSH signal, previously reported: 43%

## CC(=O)N[C@H](Cc1ccc2ccccc2c1)C(=O)N[C@@H](CCCNC(=N)N)C(=O)N[C@@H](Cc1ccc2ccccc2c1)C(=O)N[C@H](CCCCN)C(N)=O [compound 22, Ac-DNal(2′)-Arg-Nal(2′)-DLys-NH2] (Ac-[d2Nal]R[2Nal][dK]-NH2)
mMC4R [3]
  mMC4R antagonist pA2: 7.8
mMC1R [2]
  EC50: 400 to 7900 nM

## CC(=O)N[C@H](Cc1ccc(I)cc1)C(=O)N[C@H](Cc1ccc2ccccc2c1)C(=O)N[C@H](Cc1ccc(I)cc1)C(=O)N[C@@H](CCCNC(=N)N)C(N)=O [compound 33, Ac-DPhe(pI)-DNal(2′)-DPhe(pI)-Arg-NH2] (Ac-[dPhe(4-I)][d2Nal][dPhe(4-I)]R-NH2)
mMC3R [11]
  mMC3R agonist activity: inactive
mMC4R [12]
  mMC4R agonist activity: inactive
mMC5R [13]
  EC50: 30 to 800 nM
  mMC5R agonist activity: full mMC5R agonists
mMC5R [13]; read-out: mMC5R agonist EC50
  EC50: 130 nM
mMC3R [8]
  mMC3R antagonist activity: did not act as antagonists
mMC1R [9]
  mMC1R agonist activity: partially stimulate

## CC(=O)N[C@H](Cc1ccc(I)cc1)C(=O)N[C@H](Cc1ccc2ccccc2c1)C(=O)N[C@@H](Cc1ccc2ccccc2c1)C(=O)N[C@@H](CCCNC(=N)N)C(N)=O [compound 36, Ac-DPhe(pI)-DNal(2′)-Nal(2′)-Arg-NH2] (Ac-[dPhe(4-I)][d2Nal][2Nal]R-NH2)
mMC4R [3]
  mMC4R antagonist pA2: 5.8
mMC5R [13]
  EC50: 30 to 800 nM
  mMC5R agonist activity: full mMC5R agonists
mMC3R [8]
  mMC3R antagonist activity: did not act as antagonists

## Ac-DNal(2′)-Arg-DNal(2′)
MC4R [14]
  IC50: 36.5 nM

## Ac-DNal(2′)-Arg-DPhe(pI)-Arg-NH2 [compound 21]
mMC1R [9]
  mMC1R agonist activity: full agonist activity

## Ac-DNal(2′)-Arg-DPhe(pI)-DLys-NH2 [compound 19]
mMC1R [9]
  mMC1R agonist activity: full agonist activity

## Ac-DNal(2′)-Arg-Nal(2′) [MCL0020]
MC4R [14]
  IC50: 15.4 nM
Human (h)MC4R
  IC50: 11.6 nM
MC1R [15]
  IC50: > 10000 nM
MC3R [16]
  IC50: 1120 nM

## Ac-DPhe(pI)-Arg-DPhe(pI)-Arg-NH2 [compound 45]
mMC1R [9]
  mMC1R agonist activity: full agonist activity

## Ac-DPhe(pI)-Arg-DPhe(pI)-DLys-NH2 [compound 43]
mMC1R [9]
  mMC1R agonist activity: full agonist activity

## Ac-His-DPhe-Arg-Trp-NH2 [reference compound]
mMC4R [7]; Haskell-Luevano 2001
  agonist potency at the mMC4R: nanomolar

## Ac-Nle-c[Asp-Oic-DBip-Pip-Trp-Lys]-NH2
MC4R [17]
  IC50: > 5000 nM
MC5R [18]; J. Med. Chem. 2007, read-out: concentration displacing radiolabeled NDP-MSH at the MC5R
  IC50: 0.95 nM
MC4R [19]
  activation of the MC4R: up to 40%
MC3R [20]
  IC50: > 5000 nM
MC1R [21]
  activation of the MC1R: up to 40%
MC3R [22]
  activation of the MC3R: up to 40%
MC1R [23]
  IC50: > 5000 nM
MC5R [24]; J. Med. Chem. 2007, read-out: concentration activating the MC5R
  EC50: 0.99 nM

## Ac-Nle-c[Asp-Pro-DNal(2′)-Arg-Trp-Lys]-NH2 [PG901]
MC4R [25]
  hMC4R antagonist pA2: 9.3
MC3R [26]
  hMC3R antagonist pA2: 9.0

## Ac-Oic-DBip-Pip-Trp-NH2
MC5R [24]; Peptides 2007, read-out: agonist potency at the MC5R
  EC50: 1200 nM

## Ac-Phe(pI)-Nal(2′)-Phe(pI)-Arg-NH2 [compound 49]
mMC3R [11]
  mMC3R agonist activity: inactive
mMC4R [12]
  mMC4R agonist activity: inactive
mMC5R [13]
  mMC5R agonist activity: did not possess agonist activity
mMC1R [9]
  mMC1R agonist activity: partially stimulate

## Ac-Ser-Tyr-Ser-Nle-Glu-Oic-DBip-Pip-Trp-Gly-Lys-Pro-Val-NH2 (Ac-SYS[Nle]E[Oic][dBip][Pip′]WGKPV-NH2; reading uncertain; also: printed as Ac-Ser-Tyr-Ser-Nle-Glu-Oic-DBip-Pip-Trp-Gly-Lys-Pro-Val-NH2)
MC5R [18]; Peptides 2007
  selectivity for the MC5R by radiolabeled 125I-NDP-MSH displacement: greater than 3200 fold
MC5R [24]; Peptides 2007
  MC5R agonist potency: sub-nanomolar

## Ac-[dPhe(4-I)]R[2Nal]R-NH2 [compound 48]
mMC4R [3]
  MC4R antagonist potency compared to endogenous AGRP(86-132): about equipotent
  mMC4R antagonist pA2: 9.0
mMC4R [12]; 100 μM
  mMC4R partial activation, % of the maximal NDP-MSH signal: 25%
mMC3R [8]
  mMC3R antagonist pA2: 7.8
